Measurements as given in US10421715B2, “Pleuromutilin derivative having 2-amino phenyl mercaptan side chain as well as preparation method and application thereof” (SOUTH CHINA AGRICULTURAL UNIVERSITY, priority 2016, dated 2019).
≈ marks a conversion by molar mass, not a printed value. Like-named read-outs stand apart in the source and are kept apart here.

Columns and labels:
Assay in all cases: In-vitro bacteriostatic experiment, two-fold agar dilution MIC
Type in all cases: cell-based
[1] = system: mycoplasma gallisepticum S6; details: for MIC: Mycoplasmoides gallisepticum, read-out: MIC S6
Procedure: (§1) Minimum inhibitory concentrations (MIC) of a series of compounds obtained in the disclosure were measured by using a two-fold agar dilution method. An experimental control drug selected valnemulin, and valnemulin belongs to pleuromutilin antibiotics and is the most widely applied veterinary antibiotic in the pleuromutilin antibiotics at present. By using a multi-point inoculator, bacteria solution was inoculated into a culture dish containing drugs having different concentrations at a bacteria inoculating amount of 10^6 CFU/ml. A result was observed after incubation for 24 hours at 37° C., and the concentration of a compound in a culture dish without bacteria served as the minimum inhibitory concentration (MIC) of this compound.
(§2) Strains used in the experiment were E. Coli ATCC25922, Staphylococcus aureus ATCC29213, methicillin-resistant staphylococcus ATCC43300 and mycoplasma gallisepticum S6.
(§3) 25.6 mg of synthesized target compound was precisely weighed to be placed in 10 mL of volumetric flask and dissolved with a small amount of N,N-dimethylformamide and then a volume was metered with N,N-dimethylformamide to 10 mL, so as to prepare 2560 μg/mL stock solution. In addition, 25.6 mg of pleuromutilin, tiamulin, valnemulin and retapamulin were respectively and precisely weighed to be placed in 10 ml of volumetric flask, and a volume was metered with N,N-dimethylformamide to 10 mL, so as to prepare 2560 μg/mL control stock solution.
(§4) The control stock solution was diluted in a culture dish with a doubling dilution method, each culture dish contained 1 ml of medicine liquid, the medicine liquid is diluted to 20 ml with molten MH agar, so that final concentrations of subject compounds in a series of culture dishes were respectively 64, 32, 16, 8, 4, 2, 1, 0.5, 0.25, 0.125 and 0.0625 μg/ml.

[2] = system: Staphylococcus aureus ATCC29213; details: for MIC: Staphylococcus aureus, read-out: MIC S. aureus ATCC29213
Procedure: as §1, §2, §3, §4

E. Coli ATCC25922 = details: for MIC: Escherichia coli, read-out: MIC E. coli ATCC25922
Procedure: as §1, §2, §3, §4

[3] = system: methicillin-resistant staphylococcus ATCC43300; details: for MIC: read-out: MIC MRSA ATCC43300
Procedure: as §1, §2, §3, §4

[4] = mycoplasma gallisepticum S6, agar dilution, 10^6 CFU/ml, 24 hours at 37° C.
[5] = agar dilution, 10^6 CFU/ml, 24 hours at 37° C.
[6] = ATCC29213, agar dilution, 10^6 CFU/ml, 24 hours at 37° C.
[7] = ATCC25922, agar dilution, 10^6 CFU/ml, 24 hours at 37° C.

Row | Structure (SMILES) | MIC S6 [1, 4] [µg/mL] | MIC S. aureus ATCC29213 [2, 5] [µg/mL] | MIC E. coli ATCC25922 (E. Coli ATCC25922; [5]) [µg/mL] | MIC MRSA ATCC43300 [3, 5] [µg/mL] | other results
1 | C=C[C@]1(C)C[C@@H](OC(=O)CSc2ccccc2NC(=O)c2ccccc2C)[C@]2(C)[C@H](C)CC[C@]3(CCC(=O)[C@H]32)[C@@H](C)[C@@H]1O [Compound 1] | 0.125 (≈ 0.207 µM) | 0.25 (≈ 0.414 µM) | >64 | 0.25 (≈ 0.414 µM) | 
2 | C=CC1(C)CC(OC(=O)CSc2ccccc2NC(=O)c2cccc(C)c2)C2(C)C(C)CCC3(CCC(=O)C32)C(C)C1O (centres unmarked) [Compound 2, 22-O-[2-(3-methylbenzamnido)phenyl] thioacetyl valnemulin] | 0.25 (≈ 0.414 µM) | 1 (≈ 1.66 µM) | >64 | 0.5 (≈ 0.828 µM) | 
3 | C=CC1(C)CC(OC(=O)CSc2ccccc2NC(=O)c2ccc(C)cc2)C2(C)C(C)CCC3(CCC(=O)C32)C(C)C1O (centres unmarked) [Compound 3, 22-O-[2-(4-methylbenzamido)phenyl] thioacetyl valnemulin] | 0.25 (≈ 0.414 µM) | 0.5 (≈ 0.828 µM) | >64 | 0.5 (≈ 0.828 µM) | 
4 | C=CC1(C)CC(OC(=O)CSc2ccccc2NC(=O)c2ccccc2F)C2(C)C(C)CCC3(CCC(=O)C32)C(C)C1O (centres unmarked) [Compound 4] | 0.25 (≈ 0.411 µM) | 0.5 (≈ 0.823 µM) | >64 | 0.5 (≈ 0.823 µM) | 
5 | C=CC1(C)CC(OC(=O)CSc2ccccc2NC(=O)c2cccc(F)c2)C2(C)C(C)CCC3(CCC(=O)C32)C(C)C1O (centres unmarked) [Compound 5, 22-O-[2-(3-fluorobenzamido)phenyl] thioacetyl valnemulin] | 0.125 (≈ 0.206 µM) | 0.125 (≈ 0.206 µM) | >64 | 0.125 (≈ 0.206 µM) | 
6 | C=CC1(C)CC(OC(=O)CSc2ccccc2NC(=O)c2ccc(F)cc2)C2(C)C(C)CCC3(CCC(=O)C32)C(C)C1O (centres unmarked) [Compound 6, 22-O-[2-(4-fluorobenzamido)phenyl] thioacetyl valnemulin] | 0.5 (≈ 0.823 µM) | 1 (≈ 1.65 µM) | >64 | 1 (≈ 1.65 µM) | 
7 | C=C[C@]1(C)C[C@@H](OC(=O)CSc2ccccc2NC(=O)c2ccccc2Cl)[C@]2(C)[C@H](C)CC[C@]3(CCC(=O)[C@H]32)[C@@H](C)[C@@H]1O [Compound 7] | 0.25 (≈ 0.4 µM) | 0.5 (≈ 0.801 µM) | >64 | 0.5 (≈ 0.801 µM) | 
8 | C=CC1(C)CC(OC(=O)CSc2ccccc2NC(=O)c2cccc(Cl)c2)C2(C)C(C)CCC3(CCC(=O)C32)C(C)C1O (centres unmarked) [Compound 8, 22-O-[2-(3-chlorobenzamido)phenyl] thioacetyl valnemulin] | 0.125 (≈ 0.2 µM) | 0.25 (≈ 0.4 µM) | >64 | 0.25 (≈ 0.4 µM) | 
9 | C=C[C@]1(C)C[C@@H](OC(=O)CSc2ccccc2NC(=O)c2ccc(Cl)cc2)[C@]2(C)[C@H](C)CC[C@]3(CCC(=O)[C@H]32)[C@@H](C)[C@@H]1O [Compound 9] | 0.25 (≈ 0.4 µM) | 0.5 (≈ 0.801 µM) | >64 | 0.5 (≈ 0.801 µM) | 
10 | C=CC1(C)CC(OC(=O)CSc2ccccc2NC(=O)c2ccccc2OC)C2(C)C(C)CCC3(CCC(=O)C32)C(C)C1O (centres unmarked) [Compound 10, 22-O-[2-(2-methoxybenzamido)phenyl] thioacetyl valnemulin] | 0.25 (≈ 0.403 µM) | 1 (≈ 1.61 µM) | >64 | 0.5 (≈ 0.807 µM) | 
11 | C=CC1(C)CC(OC(=O)CSc2ccccc2NC(=O)c2cccc(OC)c2)C2(C)C(C)CCC3(CCC(=O)C32)C(C)C1O (centres unmarked) [Compound 11, 22-O-[2-(3-methoxybenzamido)phenyl] thioacetyl valnemulin] | 0.25 (≈ 0.403 µM) | 1 (≈ 1.61 µM) | >64 | 1 (≈ 1.61 µM) | 
12 | C=C[C@]1(C)C[C@@H](OC(=O)CSc2ccccc2NC(=O)c2ccc(OC)cc2)[C@]2(C)[C@H](C)CC[C@]3(CCC(=O)[C@H]32)[C@@H](C)[C@@H]1O [Compound 12] | 0.5 (≈ 0.807 µM) | 1 (≈ 1.61 µM) | >64 | 1 (≈ 1.61 µM) | 
13 | C=C[C@]1(C)C[C@@H](OC(=O)CSc2ccccc2N)[C@]2(C)[C@H](C)CC[C@]3(CCC(=O)[C@H]32)[C@@H](C)[C@@H]1O [Compound 13] |  |  |  |  | MIC [1, 4]: 0.0156 µg/mL (≈ 0.0321 µM); MIC [2, 6]: 0.0156 µg/mL (≈ 0.0321 µM); antibacterial activity on staphylococcus (in words) ([2]; comparison with control drugs): obviously superior to that of valnemulin and retapamulin; MIC (E. Coli ATCC25922; [7]): > 64 µg/mL; MIC [3, 5]: 0.0156 µg/mL (≈ 0.0321 µM); antibacterial activity on methicillin-resistant staphylococcus (in words) ([3]; comparison with control drugs): obviously superior to that of valnemulin and retapamulin
14 | C=C[C@]1(C)C[C@@H](OC(=O)CO)[C@]2(C)[C@H](C)CC[C@]3(CCC(=O)[C@H]32)[C@@H](C)[C@@H]1O [Pleuromutilin] |  |  |  |  | MIC [1, 4]: 0.0625 µg/mL (≈ 0.165 µM); MIC [2, 6]: 1 µg/mL (≈ 2.64 µM); MIC (E. Coli ATCC25922; [7]): > 64 µg/mL; MIC [3, 5]: 0.5 µg/mL (≈ 1.32 µM)
15 | C=C[C@]1(C)C[C@@H](OC(=O)CS[C@@H]2C[C@H]3CC[C@@H](C2)N3C)[C@]2(C)[C@H](C)CC[C@]3(CCC(=O)[C@H]32)[C@@H](C)[C@@H]1O [Retapamulin, reference compound] |  |  |  |  | MIC ([2]; ATCC29213, 24 h): 0.0625 µg/mL (≈ 0.121 µM); MIC ([3]; 24 h): 0.0625 µg/mL (≈ 0.121 µM)
16 | C=C[C@]1(C)C[C@@H](OC(=O)CSCCN(CC)CC)[C@]2(C)[C@H](C)CC[C@]3(CCC(=O)[C@H]32)[C@@H](C)[C@@H]1O [Tiamulin, reference compound] |  |  |  |  | MIC [1, 4]: 0.0156 µg/mL (≈ 0.0316 µM); MIC [2, 6]: 0.5 µg/mL (≈ 1.01 µM); MIC (E. Coli ATCC25922; [7]): > 64 µg/mL; MIC [3, 5]: 0.5 µg/mL (≈ 1.01 µM)
17 | C=C[C@]1(C)C[C@@H](OC(=O)CSC(C)(C)CNC(=O)[C@H](N)C(C)C)[C@]2(C)[C@H](C)CC[C@]3(CCC(=O)[C@H]32)[C@@H](C)[C@@H]1O [Valnemulin, reference compound] |  |  |  |  | MIC ([1]; S6, 24 h): 0.0039 µg/mL (≈ 0.0069 µM); MIC ([2]; ATCC29213, 24 h): 0.0625 µg/mL (≈ 0.111 µM); MIC (E. Coli ATCC25922; ATCC25922, 24 h): 32 µg/mL (≈ 56.7 µM); MIC ([3]; 24 h): 0.0625 µg/mL (≈ 0.111 µM)
